Test results published in the supplement of paper PMC3974653.
Where a name gives a salt, the structure may show the parent alone.

System: MTT (mouse pheochromocytoma)
Test: IC50 of cell viability (ATP content)
Settings: (24 or 48 h)
In short: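 CellTiter-Glo ATP luminescence, read after 15 minutes, was used to assess MTT mouse pheochromocytoma cells treated for 24 or 48 hrs with library compounds (final 0.5 nM to 46 µM, 8 concentrations). The cells had been plated at 5 µl of 200,000 cells/ml per well in white 1536-well plates in DMEM with 5% FBS and 1% horse serum and cultured overnight at 37°C, 5% CO2. Normalisation set positive-control wells to 100% and DMSO wells to 0%. The IC50 was then determined by four-parameter logistic fitting.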

SMILES | IC50 of cell viability [µM]
C=C1C[C@@H]2[C@H]3CCC4=CC(=O)C=C[C@]4(C)[C@@]3(F)[C@@H](O)C[C@]2(C)[C@]1(O)C(=O)COC(C)=O [Fluprednidene acetate] | > 46
CCN(CC)CCNC(=O)c1cc([S+](C)(=O)[O-])ccc1OC [Tiapride hydrochloride] | > 46
COc1cc(N[S+](C)(=O)[O-])ccc1Nc1c2ccccc2nc2ccccc12.Cl [Amsacrine hydrochloride] | > 46
N#C[C@@H]1C[C@@H]2C[C@@H]2N1C(=O)[C@@H](N)C12CC3CC(CC(O)(C3)C1)C2 [Saxagliptin] | > 46
O=C(O)CN(CCOCCOCCN(CC(=O)O)CC(=O)O)CC(=O)O | > 46
CC(=O)NC[C@@H]1CN(c2ccc(N3CCOCC3)c(F)c2)C(=O)O1 [Linezolid] | > 46
CN1C(C)(C)CCCC1(C)C.O=C(O)C(O)C(O)C(=O)O [PEMPIDINE TARTRATE] | > 46
Nc1ncnc(Nc2ccccc2)n1 [Amanozine] | > 46
C#C[C@]1(O)CC[C@H]2[C@H]3[C@H](CC[C@@]21C)C1=C(CC(=O)CC1)C[C@@H]3C [TIBOLONE] | > 46
NC(C(=O)O)c1ccc(O)cc1 (stereo not drawn) [OXFENICINUM] | > 46
O=C(O)[C@H]1CN(C/C=C/P(=O)(O)O)CCN1 [MIDAFOTELUM] | > 46
CN(C)/N=N/c1nc[nH]c1C(N)=O [Dacarbazine] | > 46
CC(C)(C)NC[C@H](O)COc1cccc2c1C[C@@H](O)[C@H](O)C2 [Nadolol] | > 46
CCOC(=O)c1cnc2c(cnn2CC)c1NN=C(C)C.Cl [Etazolate hydrochloride] | > 46
Cl.NCCCC(N)(C(=O)O)C(F)F (racemic) [DL-alpha-Difluoromethylornithine hydrochloride] | > 46
CCOC(N)=O [URETHANE] | > 46
O=C(Nc1ccc(Cl)c(Cl)c1)C1CC1 [CYPROMID] | > 46
CC(CCc1ccc(O)cc1)NCCc1ccc(O)c(O)c1 (stereo not drawn) [DOBUTAMINE] | > 46
O=S(=O)([O-])OCC1OC(OC2(COS(=O)(=O)[O-])OC(COS(=O)(=O)[O-])C(OS(=O)(=O)[O-])C2OS(=O)(=O)[O-])C(OS(=O)(=O)[O-])C(OS(=O)(=O)[O-])C1OS(=O)(=O)[O-] (stereo not drawn) [Sucrose Octasulfate, Sodium Salt] | > 46
Oc1ccc(Cl)c2c1CCC2 [Chlorindanol] | > 46
CNC(C)[C@@H](O)c1ccccc1.Cl (stereo partly drawn) [EPHEDRINE (1R,2S) HYDROCHLORIDE] | > 46
OCC(O)CN1CCN(c2ccccc2)CC1 (stereo not drawn) [DROPROPIZINE] | > 46
CN1C(=O)C[C@H](c2ccccc2)C1=O [Phensuximide] | > 46

SMILES | IC50 of cell viability [µM]
O=C1c2ccccc2CN2C(=O)c3ccccc3CN12 [Diftalone] | > 46
Nc1ccc(C(=O)Oc2ccccc2)c(O)c1 [FENAMISAL] | > 46
C[C@@H](C(=O)O)c1ccc(C2CCCCC2)c2ccccc12 [Quadrisol] | > 46
CCN(CCCCOC(=O)c1ccc(OC)c(OC)c1)[C@@H](C)Cc1ccc(OC)cc1 [Mebeverine hydrochloride] | > 46
CO/N=C(/C(=O)N[C@@H]1C(=O)N2C(C(=O)O)=C(COC(N)=O)CS[C@H]12)c1ccco1 [Cefuroxime Free Acid] | > 46
CCN(CC)CC(=O)Nc1c(C)cccc1C [LIDOCAINE] | > 46
COc1ccc(CCN(C)CCCC(C#N)(c2ccc(OC)c(OC)c2)C(C)C)cc1OC (stereo not drawn) [VERAPAMIL] | > 46
Nc1nc(O)c2nc(CNc3ccc(C(=O)N[C@@H](CCC(=O)O)C(=O)O)cc3)cnc2n1 [Folic acid] | > 46
O[C@H]1\C=C/C2[C@H]3CC4=CC=C(O)C5=C4[C@@]2(CCN3)[C@H]1O5 (stereo partly drawn) [Normorphine] | > 46
COc1ccc(/C=N/NC(=O)c2ccncc2)cc1OC [Verazide] | > 46
CC(C)CN(C[C@@H](OP(=O)([O-])[O-])[C@H](Cc1ccccc1)NC(=O)O[C@@H]1CCOC1)[S+](=O)([O-])c1ccc(N)cc1 [FOSAMPRENAVIR CALCIUM] | > 46
CC1=CC=CC(=C1N\C2=N\CCCS2)C [XYLAZINE] | > 46
COC(=O)\C1=C(/C)N\C(=C(/C1C2=C(C=CC=C2)[N+]([O-])=O)C(=O)OC)C [NIFEDIPINE] | > 46
C[S+]([O-])(=O)C1=CC=C(C=C1)C/2=C(/C(=O)OC2)C3=CC=CC=C3 [ROFECOXIB] | > 46
CCN(CC)[S+](=O)([O-])c1ccc(C(=O)O)cc1 [Etebenecid] | > 46
OC(CCCN1CCCCC1)(c1ccccc1)c1ccccc1 [Diphenidol] | > 46
C1C\N=C(\CN(CC2=CC=CC=C2)C3=CC=CC=C3)N1 [Antazoline hydrochloride] | > 46
O=Cc1ccco1 [Furfural] | > 46
CC(=O)Oc1cccc(C)c1 [CRESYL ACETATE, M-] | > 46
Cc1ccc([S+](=O)([O-])NC(=O)NN2C[C@H]3CCC[C@@H]3C2)cc1 [Gliclazide] | > 46
OC[C@H]1O[C@@H]2O[C@H]3[C@H](O)[C@@H](O)[C@@H](O[C@H]4[C@H](O)[C@@H](O)[C@@H](O[C@H]5[C@H](O)[C@@H](O)[C@@H](O[C@H]6[C@H](O)[C@@H](O)[C@@H](O[C@H]7[C@H](O)[C@@H](O)[C@@H](O[C@H]1[C@H](O)[C@H]2O)O[C@@H]7CO)O[C@@H]6CO)O[C@@H]5CO)O[C@@H]4CO)O[C@@H]3CO [alpha-Cyclodextrin] | > 46
O=c1[nH]c2ccccc2n1CCCN1CCN(C(c2ccccc2)c2ccccc2)CC1 [Oxatomide] | > 46
Cc1ccccc1/N=N/c1ccc(/N=N/c2c(O)ccc3ccccc23)c(C)c1 [SCARLET RED] | > 46

SMILES | IC50 of cell viability [µM]
COC(=O)c1cncn1C(C)c1ccccc1 (stereo not drawn) [METOMIDATE HYDROCHLORIDE] | > 46
CN1CC\C(CC1)=C2/C3=CC=CC=C3CCC4=CC=CN=C24 [Azatadine] | > 46
Cn1cnc2c1c(=O)[nH]c(=O)n2C [Theobromine] | > 46
CCC[C@@H](N[C@@H](C)C(=O)N1[C@@H](C(=O)O)C[C@@H]2CCCC[C@@H]21)C(=O)OCC [Perindopril] | > 46
CC(C)NCC(O)COc1ccccc1-n1cccc1 (stereo not drawn) [ISAMOLTANE] | > 46
O=C(O)CCC(=O)C(=O)O [2-Oxopentanedioic acid] | > 46
ClC/1=C(Cl)/[C@@]2(Cl)[C@H]3[C@H]4C[C@H]([C@@H]5O[C@H]45)[C@H]3[C@]1(Cl)C2(Cl)Cl [Dieldrin] | > 46
CCCCCc1ccc(C)cc1O [AMYLMETACRESOL] | > 46
CCC1(c2cnc[nH]2)Cc2ccccc2C1 [Atipamezole Hydrochloride] | > 46
C\C1=C\C(=O)C2=C(C=CC=C2)C1=O [MENADIONE] | > 46
CCN(CC)CCN1C(=O)\C(=N/C2=CC=CC=C12)CC3=CC=C(OC)C=C3 [Caroverine hydrochloride] | > 46
C1CCc2nnnn2CC1 [PENTYLENETETRAZOLE] | > 46
CCOC(=O)Nc1ccc2c(c1)N(C(=O)CCN1CCOCC1)c1ccccc1S2 [Moricizine hydrochloride] | > 46
CC[n+]1c(-c2ccccc2)c2cc(N)ccc2c2ccc(N)cc21 [Ethidium bromide] | > 46
CC(=O)OCC(COC(C)=O)OC(C)=O [Triacetin] | > 46
N=C(N)NCc1cccc(I)c1.N=C(N)NCc1cccc(I)c1.O=[S+]([O-])(O)O [m-Iodobenzylguanidine hemisulfate] | > 46
CN1c2ccccc2C(NCCCCCCC(=O)[O][Na])c2ccc(Cl)cc2[S+]1(=O)[O-] (stereo not drawn) [TIANEPTINUM] | > 46
CC1=C(C(=O)O)N2C(=O)[C@@H](NC(=O)[C@H](N)c3ccccc3)[C@H]2SC1 [Cefalexina] | > 46
CCCNC(=O)N[S+](=O)([O-])c1ccc(Cl)cc1 [Chlorpropamide] | > 46
CC[N+](C)(CC)CCOC(=O)C(O)(c1ccccc1)C1CCCCC1 (stereo not drawn) [OXYPHENONIUM BROMIDE] | > 46
C[S+](=O)([O-])OCC(O)C(O)CO[S+](C)(=O)[O-] (stereo not drawn) [TREOSULFAN] | > 46
CCCOC(=O)c1ccccc1 [PROPYL BENZOATE] | > 46
